Assay results published in patent US20140235776A1, “AMINOALCOHOL COMPOUNDS AND THEIR USE AS ZERO OR LOW VOC ADDITIVES FOR PAINTS AND COATINGS” (ANGUS CHEMICAL COMPANY, priority 2011, published 2014).
Like-named read-outs stand apart in the source and are kept apart here.

Columns and labels:
Format in all cases: physicochemical
[1] = pKa of neutralizing amines
[2] = VOC testing according to ASTM D6886-rev (gas chromatography); settings: neutralizer in a finished paint formulation, GC conditions of Table 2
Description: VOC properties are tested according to the ASTM D6886-rev method.

[3] = Freeze-thaw cycles of paint samples, viscosity by Krebs Stormer Viscometer; settings: for Viscosity after Freeze-Thaw cycles (KU), 2nd cycle / Viscosity after Freeze-Thaw cycles (KU), 3rd cycle / Viscosity after Freeze-Thaw cycles (KU), 4th cycle / Viscosity after Freeze-Thaw cycles (KU), 5th cycle / Viscosity after Freeze-Thaw cycles (KU), 1st cycle: additive 2 wt %; for Initial Viscosity (KU): additive 2 wt % post-add in paint of Table 8, before freeze-thaw; for Viscosity after Freeze-Thaw cycles (KU), 1st cycle: cycle = −18° C. 17 hours, 25° C. 7 hours; for freeze-thaw survival of paint sample (in words): added as post-add, 2 wt %
Description: Preparation of paint formulations containing compounds of the invention: The paint formulations are prepared using F/T agent 1 and 2 as shown by structures below. The octanol water partition coefficients are calculated for these compounds using the method of Moriguchi et al., Chem. Pharm. Bull. 40(1), 127-130 (1992). The calculated octanol-water partition coefficients for F/T-1 and F/T-2 are −2.59, and −3.99, respectively. […] Paint samples are frozen at −18° C. for 17 hours and then thawed at 25° C. for 7 hours. This constitutes 1 complete freeze-thaw cycle. Viscosities are measured after each freeze-thaw cycle using a Krebs Stormer Viscometer from Sheen at room temperature. The viscosity is measured in Krebs unit (KU). The results of freeze-thaw cycles on paint samples that contain zero-VOC compounds of the invention as post-adds are listed in the Table 9. The post-add compounds are mixed at 2 wt % in the paint samples. The same paint formulation is used in preparing all the samples. The paint sample without any post-add is designated as “Blank.”
The KU values below 150 as reported in Table 9 are considered acceptable, and all the values (other than that for the Blank) reported are considered very acceptable.

[4] = High shear (ICI) viscosity of paint, ASTM D 4287; settings: in P (unit assumed)
Description: (§1) The pH of each formulation is measured with a digital pH meter with a glass combination pH probe. Krebs-units (KU) viscosity is measured with Brookfield model KU viscometer with digital display (ASTM D562), at 25° C. The high shear (“ICI”) viscosity is measured according to ASTM D 4287 using a Brookfield CAP 1000+ viscometer at a shear rate of 12,000 s^−1 at 900 rpm, with a 0.45° cone of radius 1.511 cm, and a sample temperature controlled at 25° C.

[5] = Krebs-units (KU) low shear viscosity of paint, ASTM D562
Description: as §1

[6] = pH of paint formulation (digital pH meter); settings: for pH: Zero VOC Flat Formulation, vinyl acrylic latex; for pH, 1 day 25° C.: Zero VOC Semi Gloss Formulation, acrylic latex
Description: pH, Low Shear and High Shear Viscosity.
The pH of each formulation is measured with a digital pH meter with a glass combination pH probe. Krebs-units (KU) viscosity is measured with Brookfield model KU viscometer with digital display (ASTM D562), at 25° C.

[7] = read-out: pKa (first value, pK1)
[8] = read-out: pKa (second value, pK2)
[9] = Zero VOC Semi Gloss Formulation

SMILES	pKa [1, 7]	pKa [1, 8]	VOC contributed by neutralizers [2] [%^2]	Viscosity after Freeze-Thaw cycles (KU), 2nd cycle [3] [KU]	Viscosity after Freeze-Thaw cycles (KU), 3rd cycle [3] [KU]	Viscosity after Freeze-Thaw cycles (KU), 4th cycle [3] [KU]	Viscosity after Freeze-Thaw cycles (KU), 5th cycle [3] [KU]	Initial Viscosity (KU) [3] [KU]	Viscosity after Freeze-Thaw cycles (KU), 1st cycle [3] [KU]	other results
OCC(O)CNCCN(CCNCC(O)CO)CC(O)CO (centres unmarked) [DETA Glyc, 3,3′-((((2,3-dihydroxypropyl)azanediyl)bis(ethane-2,1-diyl))bis(azanediyl))bis(propane-1,2-diol)]	8.9	4.6	0							
OCCOCCO [Diethylene Glycol, diethylene glycol, reference compound]				105.1	106.9	100.6	98	91.0	101.1	
CC(C)(N)CNCCOCCOCCNCC(C)(C)N [EDBDA bis-AMP, N1,N1′-((ethane-1,2-diylbis(oxy))bis(ethane-2,1-diyl))bis(2-methylpropane-1,2-diamine), reference compound]	9.7	5.8	0							
OCC(O)CNCCN(CCNCC(O)CO)CC(O)CO (centres unmarked) [F/T Agent 1, 3,3′-((((2,3-dihydroxypropyl)azanediyl)bis(ethane-2,1-diyl))bis(azanediyl))bis(propane-1,2-diol)]				111.1	112.7	111.8	109.5	89.5	108	freeze-thaw survival of paint sample (in words) [3]: survive five freeze-thaw cycles
OCC(O)CN(CCN(CC(O)CO)CC(O)CO)CCN(CC(O)CO)CC(O)CO (centres unmarked) [F/T Agent 2, 3,3′,3″,3′′′-((((2,3-dihydroxypropyl)azanediyl)bis(ethane-2,1-diyl))bis(azanetriyl))tetrakis(propane-1,2-diol)]				113.1	114	121.7	116.3	88.2	110.4	freeze-thaw survival of paint sample (in words) [3]: survive five freeze-thaw cycles
[Na+].[OH-] [NaOH, sodium hydroxide, reference compound]										ICI Viscosity, 1 day 25° C. ([4]; Zero VOC Flat Formulation): 1.184; ICI Viscosity, 1 day 25° C. [4, 9]: 1.059; KU Viscosity, 1 day 25° C. ([5]; Zero VOC Flat Formulation): 86 KU; KU Viscosity, 1 day 25° C. [5, 9]: 89.1 KU; pH [6]: 8.56; pH, 1 day 25° C. [6]: 9.47
CC(O)CNCCNCCN(CCNCC(C)O)CC(C)O (centres unmarked) [TETA 3PO, 7-(2-hydroxypropyl)-4,7,10,13-tetraazahexadecane-2,15-diol]										ICI Viscosity, 1 day 25° C. ([4]; Zero VOC Flat Formulation): 1.29; ICI Viscosity, 1 day 25° C. [4, 9]: 1.018; KU Viscosity, 1 day 25° C. ([5]; Zero VOC Flat Formulation): 92.8 KU; KU Viscosity, 1 day 25° C. [5, 9]: 85.9 KU; pH [6]: 8.51; pH, 1 day 25° C. [6]: 9.46

More lines, main results first:

pKa [1, 7]	pKa [1, 8]	VOC contributed by neutralizers [2] [%^2]	Viscosity after Freeze-Thaw cycles (KU), 2nd cycle [3] [KU]	Viscosity after Freeze-Thaw cycles (KU), 3rd cycle [3] [KU]	Viscosity after Freeze-Thaw cycles (KU), 4th cycle [3] [KU]	Viscosity after Freeze-Thaw cycles (KU), 5th cycle [3] [KU]	Initial Viscosity (KU) [3] [KU]	Viscosity after Freeze-Thaw cycles (KU), 1st cycle [3] [KU]	SMILES	other results
			103.2	115.1	99.4	98.2	89.8	101.3	CC(O)CO (centres unmarked) [Propylene Glycol, propylene glycol, reference compound]	
8.7	4.8	0							CC(O)CNCCN(CCNCCN(CCNCC(C)O)CC(C)O)CC(C)O (centres unmarked) [TEPA 4PO, 7,13-bis(2-hydroxypropyl)-4,7,10,13,16-pentaazanonadecane-2,18-diol]	
